Assay results published in patent US11166893B2, “Topical hirsutism treatment” (BMG PHARMA SRL, priority 2015, dated 2021).

System: growth of superfluous hair
Assay: Inhibition of superfluous hair growth evaluated by the Trichoscan method
Assay type: in vivo
Settings: 10% capryloyl glycine cream, topical, compared with eflornithine efficacy reported in Eur. J Dermatol 2008, 18 (1): 65-70
Experimental: The ability of capryloyl glycine to inhibit the growth of superfluous hair was evaluated by the Trichoscan® method (http://trichoscan.com/pages/english/professional-info/reference-values.php).

CCCCCCCC(=O)NCC(=O)O [capryloyl glycine]
ability to inhibit the growth of superfluous hair (efficacy): efficacy comparable to that of eflornithine
